# Test results taken from paper PMC3961306, “Comparison of the Cancer Gene Targeting and Biochemical Selectivities of All Targeted Kinase Inhibitors Approved for Clinical Use” (PLoS ONE, 2014).
# Assays:
# Assay in all cases: Kinase profiling in a biochemical assay panel (mobility shift assays and ELISA), %-inhibition at 1 μM; selectivity entropy
# [1] = biological target: panel of more than 300 wild-type and mutant kinases (313 kinase panel) (Homo sapiens, UniProt P11362)
# [2] = biological target: panel of more than 300 wild-type and mutant kinases (313 kinase panel) (Homo sapiens, UniProt Q13557)
# [3] = biological target: panel of more than 300 wild-type and mutant kinases (313 kinase panel) (Homo sapiens, UniProt P24941)
# [4] = biological target: T1, panel of more than 300 wild-type and mutant kinases (313 kinase panel) (Homo sapiens, UniProt Q13470)
# T1 sequence (Q13470 1-666): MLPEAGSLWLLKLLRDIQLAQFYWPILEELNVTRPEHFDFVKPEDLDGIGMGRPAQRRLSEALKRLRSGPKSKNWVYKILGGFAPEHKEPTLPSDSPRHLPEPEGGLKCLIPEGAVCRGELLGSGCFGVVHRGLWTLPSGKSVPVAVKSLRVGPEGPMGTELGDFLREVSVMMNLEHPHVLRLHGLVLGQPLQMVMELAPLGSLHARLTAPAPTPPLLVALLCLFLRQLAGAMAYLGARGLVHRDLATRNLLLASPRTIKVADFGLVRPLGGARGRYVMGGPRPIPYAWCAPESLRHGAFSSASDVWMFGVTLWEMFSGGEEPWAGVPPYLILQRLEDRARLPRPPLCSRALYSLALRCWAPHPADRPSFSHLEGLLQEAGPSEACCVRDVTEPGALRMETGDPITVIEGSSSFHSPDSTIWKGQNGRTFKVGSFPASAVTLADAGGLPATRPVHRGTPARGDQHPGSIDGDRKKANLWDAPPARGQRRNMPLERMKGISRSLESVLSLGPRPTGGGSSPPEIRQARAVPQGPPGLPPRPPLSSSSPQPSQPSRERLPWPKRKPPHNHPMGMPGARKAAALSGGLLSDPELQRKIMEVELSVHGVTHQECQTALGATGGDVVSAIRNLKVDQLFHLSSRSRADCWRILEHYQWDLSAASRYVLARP
# [5] = biological target: panel of more than 300 wild-type and mutant kinases (313 kinase panel) (Homo sapiens, UniProt Q13233)
# [6] = biological target: panel of more than 300 wild-type and mutant kinases (313 kinase panel) (Homo sapiens, UniProt P22455)
# [7] = biological target: T2, panel of more than 300 wild-type and mutant kinases (313 kinase panel) (Homo sapiens, UniProt Q15831)
# T2 sequence (Q15831 1-433): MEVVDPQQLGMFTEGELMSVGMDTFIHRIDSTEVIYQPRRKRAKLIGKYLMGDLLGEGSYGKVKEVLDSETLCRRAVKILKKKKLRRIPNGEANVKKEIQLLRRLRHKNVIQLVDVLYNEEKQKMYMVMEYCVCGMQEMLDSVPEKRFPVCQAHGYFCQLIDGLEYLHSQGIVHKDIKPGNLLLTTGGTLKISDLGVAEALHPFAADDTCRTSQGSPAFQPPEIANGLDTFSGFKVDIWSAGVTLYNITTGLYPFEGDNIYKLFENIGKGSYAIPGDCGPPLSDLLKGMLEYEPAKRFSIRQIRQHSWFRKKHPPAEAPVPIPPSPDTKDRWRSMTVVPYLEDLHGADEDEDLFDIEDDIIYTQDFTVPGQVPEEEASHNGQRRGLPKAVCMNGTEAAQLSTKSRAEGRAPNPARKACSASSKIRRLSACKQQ
# [8] = biological target: panel of more than 300 wild-type and mutant kinases (313 kinase panel) (Homo sapiens, UniProt Q5VT25)
# [9] = biological target: panel of more than 300 wild-type and mutant kinases (313 kinase panel) (Homo sapiens, UniProt P16234, V561D)
# [10] = biological target: panel of more than 300 wild-type and mutant kinases (313 kinase panel) (Homo sapiens, UniProt Q9HBH9)
# [11] = biological target: panel of more than 300 wild-type and mutant kinases (313 kinase panel) (Homo sapiens, UniProt P05129)
# [12] = kinase CDK2/CycA2, 1 μM compound
# [13] = kinase CDK2/CycE1, 1 μM compound
# [14] = kinase MAP3K1, compound at 1 μM
# Sequence of panel of more than 300 wild-type and mutant kinases (313 kinase panel) (Homo sapiens, UniProt Q13557) (Q13557 whole entry, change not shown): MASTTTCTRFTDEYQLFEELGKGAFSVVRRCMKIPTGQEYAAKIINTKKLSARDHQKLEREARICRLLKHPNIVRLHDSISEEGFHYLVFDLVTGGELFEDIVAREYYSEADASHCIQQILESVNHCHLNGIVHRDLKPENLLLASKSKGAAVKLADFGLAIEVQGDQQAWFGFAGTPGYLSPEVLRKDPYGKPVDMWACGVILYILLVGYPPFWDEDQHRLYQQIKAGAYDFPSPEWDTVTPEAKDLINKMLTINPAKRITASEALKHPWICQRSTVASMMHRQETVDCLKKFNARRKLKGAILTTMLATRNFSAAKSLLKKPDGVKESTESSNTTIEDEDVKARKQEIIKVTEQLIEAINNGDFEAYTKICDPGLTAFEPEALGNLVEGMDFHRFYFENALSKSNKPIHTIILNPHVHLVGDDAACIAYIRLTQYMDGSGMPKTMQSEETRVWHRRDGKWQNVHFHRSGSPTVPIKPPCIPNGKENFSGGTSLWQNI
# Sequence of panel of more than 300 wild-type and mutant kinases (313 kinase panel) (Homo sapiens, UniProt P11362) (P11362 22-822, change not shown): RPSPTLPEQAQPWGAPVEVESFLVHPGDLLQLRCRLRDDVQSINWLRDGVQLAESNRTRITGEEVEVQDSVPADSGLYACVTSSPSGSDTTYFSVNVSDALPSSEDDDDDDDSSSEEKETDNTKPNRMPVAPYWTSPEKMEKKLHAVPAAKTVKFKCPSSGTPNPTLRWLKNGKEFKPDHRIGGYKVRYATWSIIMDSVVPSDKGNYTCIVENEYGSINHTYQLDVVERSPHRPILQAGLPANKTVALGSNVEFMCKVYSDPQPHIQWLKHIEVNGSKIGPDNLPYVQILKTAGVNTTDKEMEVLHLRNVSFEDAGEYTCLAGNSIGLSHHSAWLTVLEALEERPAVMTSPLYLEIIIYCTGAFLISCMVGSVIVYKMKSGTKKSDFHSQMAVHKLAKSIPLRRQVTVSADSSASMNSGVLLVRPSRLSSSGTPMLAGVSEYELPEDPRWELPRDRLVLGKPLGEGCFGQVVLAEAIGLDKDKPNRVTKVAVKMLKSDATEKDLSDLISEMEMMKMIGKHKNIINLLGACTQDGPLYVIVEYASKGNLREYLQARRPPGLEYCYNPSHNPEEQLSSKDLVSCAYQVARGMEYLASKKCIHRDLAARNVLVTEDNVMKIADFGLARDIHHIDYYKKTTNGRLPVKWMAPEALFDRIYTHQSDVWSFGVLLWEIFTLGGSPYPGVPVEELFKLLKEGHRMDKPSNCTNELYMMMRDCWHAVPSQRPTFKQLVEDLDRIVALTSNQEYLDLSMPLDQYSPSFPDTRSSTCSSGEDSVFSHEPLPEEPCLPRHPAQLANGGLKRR
# Sequence of panel of more than 300 wild-type and mutant kinases (313 kinase panel) (Homo sapiens, UniProt Q13233) (Q13233 whole entry, change not shown): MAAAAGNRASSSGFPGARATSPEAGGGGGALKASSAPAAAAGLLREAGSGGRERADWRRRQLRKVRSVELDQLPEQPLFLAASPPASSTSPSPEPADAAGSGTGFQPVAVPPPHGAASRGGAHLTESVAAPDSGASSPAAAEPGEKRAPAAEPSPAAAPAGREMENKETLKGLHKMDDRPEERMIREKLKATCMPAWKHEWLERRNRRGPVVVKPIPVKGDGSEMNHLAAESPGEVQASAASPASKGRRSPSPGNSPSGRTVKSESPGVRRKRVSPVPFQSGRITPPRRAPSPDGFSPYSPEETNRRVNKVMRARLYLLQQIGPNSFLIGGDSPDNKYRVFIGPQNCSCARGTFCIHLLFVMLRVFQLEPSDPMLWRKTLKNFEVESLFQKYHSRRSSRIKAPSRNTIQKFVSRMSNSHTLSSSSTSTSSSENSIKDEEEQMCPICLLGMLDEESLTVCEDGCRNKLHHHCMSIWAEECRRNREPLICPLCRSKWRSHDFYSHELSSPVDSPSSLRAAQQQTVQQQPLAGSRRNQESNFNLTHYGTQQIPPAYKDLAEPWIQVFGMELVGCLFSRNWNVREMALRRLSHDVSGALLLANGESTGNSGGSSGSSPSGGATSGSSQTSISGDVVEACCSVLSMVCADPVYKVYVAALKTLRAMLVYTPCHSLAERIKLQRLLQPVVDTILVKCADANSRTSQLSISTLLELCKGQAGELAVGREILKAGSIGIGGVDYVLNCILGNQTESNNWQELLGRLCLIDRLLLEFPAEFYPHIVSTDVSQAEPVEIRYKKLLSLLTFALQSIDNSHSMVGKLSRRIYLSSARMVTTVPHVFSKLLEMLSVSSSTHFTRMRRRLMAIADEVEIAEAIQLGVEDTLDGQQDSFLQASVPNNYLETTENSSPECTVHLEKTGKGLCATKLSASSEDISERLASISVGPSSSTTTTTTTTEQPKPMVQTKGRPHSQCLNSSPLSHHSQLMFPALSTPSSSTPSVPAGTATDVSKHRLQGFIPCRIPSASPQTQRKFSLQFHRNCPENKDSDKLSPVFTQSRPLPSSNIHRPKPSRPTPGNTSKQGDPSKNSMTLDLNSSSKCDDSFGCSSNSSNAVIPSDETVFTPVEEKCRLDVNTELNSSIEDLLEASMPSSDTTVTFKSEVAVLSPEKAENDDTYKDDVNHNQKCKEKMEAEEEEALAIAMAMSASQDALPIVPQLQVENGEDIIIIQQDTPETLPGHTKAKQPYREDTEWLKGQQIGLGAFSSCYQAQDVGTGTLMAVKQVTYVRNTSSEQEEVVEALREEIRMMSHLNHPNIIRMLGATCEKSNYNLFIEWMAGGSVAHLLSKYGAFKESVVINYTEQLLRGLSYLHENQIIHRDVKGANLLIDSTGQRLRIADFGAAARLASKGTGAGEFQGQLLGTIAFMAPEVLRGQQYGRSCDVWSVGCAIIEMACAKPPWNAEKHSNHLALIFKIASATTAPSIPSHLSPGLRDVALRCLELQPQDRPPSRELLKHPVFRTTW
# Sequence of panel of more than 300 wild-type and mutant kinases (313 kinase panel) (Homo sapiens, UniProt P16234, V561D) (P16234 24-1089 V561D): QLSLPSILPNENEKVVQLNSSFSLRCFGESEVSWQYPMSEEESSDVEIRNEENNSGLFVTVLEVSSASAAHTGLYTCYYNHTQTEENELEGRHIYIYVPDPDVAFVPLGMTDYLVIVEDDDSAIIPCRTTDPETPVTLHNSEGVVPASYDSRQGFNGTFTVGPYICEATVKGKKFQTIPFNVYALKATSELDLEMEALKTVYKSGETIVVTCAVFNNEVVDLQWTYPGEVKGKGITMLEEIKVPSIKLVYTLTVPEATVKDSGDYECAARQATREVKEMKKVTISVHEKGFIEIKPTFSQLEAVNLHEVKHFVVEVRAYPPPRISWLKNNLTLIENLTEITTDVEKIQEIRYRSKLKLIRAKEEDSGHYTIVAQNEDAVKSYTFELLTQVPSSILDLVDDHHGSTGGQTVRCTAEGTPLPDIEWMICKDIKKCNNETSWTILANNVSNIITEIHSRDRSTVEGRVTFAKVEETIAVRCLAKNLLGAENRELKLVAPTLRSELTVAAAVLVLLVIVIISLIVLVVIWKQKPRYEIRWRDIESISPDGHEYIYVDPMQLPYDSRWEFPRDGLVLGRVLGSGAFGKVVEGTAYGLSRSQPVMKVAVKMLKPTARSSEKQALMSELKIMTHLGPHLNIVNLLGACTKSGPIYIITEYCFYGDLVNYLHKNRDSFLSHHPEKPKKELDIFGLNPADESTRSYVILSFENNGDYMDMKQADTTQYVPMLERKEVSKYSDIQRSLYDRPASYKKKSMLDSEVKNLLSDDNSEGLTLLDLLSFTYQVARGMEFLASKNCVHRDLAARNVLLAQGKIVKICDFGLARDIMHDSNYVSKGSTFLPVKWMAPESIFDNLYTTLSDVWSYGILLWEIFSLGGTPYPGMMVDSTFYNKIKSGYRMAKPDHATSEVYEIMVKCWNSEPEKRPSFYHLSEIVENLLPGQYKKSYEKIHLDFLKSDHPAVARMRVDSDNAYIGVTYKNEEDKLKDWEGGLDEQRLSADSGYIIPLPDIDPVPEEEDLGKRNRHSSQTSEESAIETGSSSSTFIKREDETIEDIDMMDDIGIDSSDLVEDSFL
Compound,"%-inhibition of FGFR1 ([1]; kinase FGFR1, compound at 1 μM)","%-inhibition, CaMK2δ ([2]; kinase CaMK2δ, 1 μM compound)","%-inhibition, CDK2/CycA2 [3, 12]","%-inhibition, CDK2/CycE1 [3, 13]","%-inhibition of TNK1 ([4]; kinase TNK1, 1 μM)","%-inhibition of MAP3K1 [5, 14]","%-inhibition of FGFR4 ([6]; kinase FGFR4, compound at 1 μM)","%-inhibition of LKB1 ([7]; kinase LKB1, compound at 1 μM)","%-inhibition of MRCKα ([8]; kinase MRCKα, 1 μM)","%-inhibition of PDGFRα(V561D) ([9]; kinase PDGFRα(V561D), 1 μM)","%-inhibition of MNK2 ([10]; kinase MNK2, 1 μM)","%-inhibition of PKCγ ([11]; kinase PKCγ, 1 μM)",%-inhibition of LKB1 ([7]; 1 µM),%-inhibition of PDGFRα(V561D) ([9]; 1 µM),further results
COc1cc2nccc(Oc3ccc(NC(=O)C4(C(=O)Nc5ccc(F)cc5)CC4)cc3)c2cc1OC [cabozantinib],16%,0.942%,-9%,5%,89%,36%,8%,-3.17%,0.575%,99%,97%,-4%,,,
C[C@@H](Oc1cc(-c2cnn(C3CCNCC3)c2)cnc1N)c1c(Cl)ccc(F)c1Cl [crizotinib],17%,4%,,-14%,41%,28%,0%,-1.39%,-8%,30%,2%,-0.662%,,,
C#Cc1cccc(Nc2ncnc3cc(OCCOC)c(OCCOC)cc23)c1 [erlotinib],,,,,,,,,,,,,2%,56%,"%-inhibition of FGFR1 ([1]; 1 µM): 24%; %-inhibition, CaMK2δ ([2]; 1 µM): -11%; %-inhibition, CDK2/CycA2 ([3]; 1 µM): 10%; %-inhibition, CDK2/CycE1 ([3]; 1 µM): -2.43%; %-inhibition of TNK1 ([4]; 1 µM): 44%; %-inhibition of MAP3K1 ([5]; 1 µM): 6%; %-inhibition of FGFR4 ([6]; 1 µM): 6%; %-inhibition of MRCKα ([8]; 1 µM): -6%; %-inhibition of MNK2 ([10]; 1 µM): 35%; %-inhibition of PKCγ ([11]; 1 µM): 8%"
CO[C@H]1C[C@@H]2CC[C@@H](C)[C@@](O)(O2)C(=O)C(=O)N2CCCC[C@H]2C(=O)O[C@H]([C@H](C)C[C@@H]2CC[C@@H](OCCO)[C@H](OC)C2)CC(=O)[C@H](C)/C=C(\C)[C@@H](O)[C@@H](OC)C(=O)[C@H](C)C[C@H](C)/C=C/C=C/C=C/1C [everolimus],-8%,-2.12%,-11%,-14%,-0.4%,7%,-7.59%,-9%,-6%,-6%,1.88%,-6.56%,,,
CS(=O)(=O)CCNCc1ccc(-c2ccc3ncnc(Nc4ccc(OCc5cccc(F)c5)c(Cl)c4)c3c2)o1 [lapatinib],-0.636%,-33%,,,-8.45%,1.76%,0.821%,4%,,,2.43%,-0.202%,,-1%,"%-inhibition, CDK2/CycE1 ([3]; 1 µM): -2.57%; %-inhibition of MRCKα ([8]; 1 µM): -2.49%"
Cc1cn(-c2cc(NC(=O)c3ccc(C)c(Nc4nccc(-c5cccnc5)n4)c3)cc(C(F)(F)F)c2)cn1 [nilotinib],-29%,,-0.282%,20%,,-18%,-7.46%,,-13%,,2%,-1.31%,-6%,100%,"%-inhibition, CaMK2δ ([2]; 1 µM): 1.2%; %-inhibition of TNK1 ([4]; 1 µM): -4%"
Cc1ccc(C(=O)Nc2ccc(CN3CCN(C)CC3)c(C(F)(F)F)c2)cc1C#Cc1cnc2cccnn12 [ponatinib],101%,,-9%,9%,100%,-9%,98%,-12%,-0.575%,103%,97%,-3%,,,
N#CC[C@H](C1CCCC1)n1cc(-c2ncnc3[nH]ccc23)cn1 [ruxolitinib],24%,81%,2.48%,-12%,31%,-10%,6%,,0.766%,18%,54%,6%,0.546%,,
